Measurements reported in PubChem BioAssay (NCI).
“And” between values parts separate entries of the source, which are not always exact repeats. Equal entries are not always repeated.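 Tested at 5 concentrations; 48 h exposure; 96-well plates; endpoints linearly interpolated, else capped at highest concentration. GI50 marks 50% less growth. Definition used: TGI = concentration required for complete inhibition of growth.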

Key:
Assay in all cases: inhibition of tumour cell growth, NCI panel, 48 h
MCF7 breast = tested on: MCF7 breast
NCI-H226 lung = tested on: NCI-H226 lung
NCI-H522 lung = tested on: NCI-H522 lung
OVCAR-4 ovarian = tested on: OVCAR-4 ovarian
SN12C renal = tested on: SN12C renal
SR leukemia = tested on: SR leukemia
SW-620 colon = tested on: SW-620 colon
UACC-62 melanoma = tested on: UACC-62 melanoma

| Compound | TGI (MCF7 breast) [µM] | TGI (NCI-H226 lung) [µM] | TGI (NCI-H522 lung) | TGI (OVCAR-4 ovarian) [µM] | TGI (SN12C renal) [µM] | TGI (SR leukemia) [µM] | TGI (SW-620 colon) [µM] | TGI (UACC-62 melanoma) [µM] | GI50 (SN12C renal) [µM] | GI50 (UACC-62 melanoma) [µM] | GI50 (NCI-H522 lung) |
| --- | --- | --- | --- | --- | --- | --- | --- | --- | --- | --- | --- |
| CSc1nc2ccccc2c(=O)n1-c1cccc(C)c1 | > 100 | > 100 | > 100 µM | > 100 | > 100 | 49.7 | > 100 | > 100 | – | – | – |
| COc1ccc(/C=N/Nc2nc3ccccc3c(=O)n2-c2ccccc2)cc1 | 40.5 | > 100 | > 100 µM | > 100 | > 100 | > 100 | > 100 | > 100 | – | – | – |
| COc1ccc(-c2c(C(=O)Nc3ccccc3)c(-c3ccccc3)n(C3OC(CO)C(O)C(O)C3O)c(=S)c2C#N)cc1 (centres undefined) | > 100 | > 100 | > 100 µM | > 100 | > 100 | > 100 | > 100 | > 100 | – | – | – |
| ClCc1nc2cc(Cl)ccc2o1 | 7.65 | 42.9 | 3.37 µM | 3.45 | 20.9 | > 37 | > 67.2 | 23.1 | – | – | – |
| O=C(CN1c2ccccc2Sc2ccccc21)n1cnc2ccccc21 | > 100 | > 100 | – | > 100 | > 100 | – | > 100 | > 100 | – | – | – |
| c1cc(-c2ccc(Oc3ccc(-c4ccncc4)cc3)cc2)ccn1 | > 100 | > 100 | > 79.4 µM | > 100 | > 100 | 9.97 | > 100 | > 100 | – | – | – |
| COc1cc(/C=C2\N=C(c3ccccc3)N(/N=C/c3cc4cc(C)ccc4nc3Cl)C2=O)ccc1O | 63.1 | – | – | > 100 | 77.1 | 47.1 | > 100 | > 100 | – | – | – |
| CC(C)Cn1cnnc1NS(=O)(=O)c1cc(C(=O)NN)c(Cl)cc1S | > 10 | > 10 | > 10 µM | > 10 | > 10 | – | > 10 | > 10 | – | – | – |
| COc1ccc(OC)c(CC(=O)c2ccc(O)c(C(=O)NCCc3ccc(F)cc3)c2)c1 | 24.6 | – | 11.2 µM | 31 | 19.4 | 10 | > 100 | 21.6 | 4.26 | 4.01 | – |
| C[C@H]1ON2CCC[C@@H]2[C@@H]1C(=O)N1C2CC3CCC2(CS1(=O)=O)C3(C)C (some centres undefined) | > 100 | > 100 | > 100 µM | > 100 | > 100 | – | > 100 | > 100 | – | – | – |
| c1ccc(NC2(c3nnnn3C3CCCCC3)CCNCC2)cc1 | 35.1 | 62.3 | – | > 100 | 90.1 | 36.1 | 43.4 | 38.5 | – | – | – |
| OCC1OC(NC(=S)NCSCCC(F)(F)C(F)(F)C(F)(F)C(F)(F)C(F)(F)C(F)(F)F)C(O)C(O)C1O (centres undefined) | > 100 | – | – | > 100 | > 100 | > 100 | > 100 | > 100 | – | – | – |
| O=[N+]([O-])c1ccc2nc(/C=C(\O)c3ccccc3)c(/C=C(\O)c3ccc(Cl)cc3)nc2c1 | > 100 | > 100 | 79.7 µM | > 100 | > 100 | > 100 | – | > 100 | – | – | – |
| NC(=S)NS(=O)(=O)c1ccc(F)cc1 | – | > 100 | > 100 µM | > 100 | > 100 | – | > 100 | > 100 | – | – | – |
| CC(C)(C)OC(=O)N1CCC[C@H]1CSC[C@@H]1CCCN1C(=O)OC(C)(C)C | 96.3 | – | 56 µM | > 100 | > 100 | – | 96.8 | 57.2 | – | – | – |
| CCC/C(Cl)=N/OC(=O)Nc1cccc(F)c1 | 8.85 | 27.9 | 1.05 µM | 25.4 | 15.2 | – | 2.98 | 32.6 | – | – | – |
| O=C(N/N=C1\CCc2ccccc21)N/N=C1\CCc2ccccc21 | > 100 | > 100 | > 100 µM | – | > 100 | > 100 | > 100 | > 100 | – | – | – |
| COC1(CCO)CC=CCC1(CCO)OC (centres undefined) | > 100 | > 100 | > 100 µM | > 100 | > 100 | – | > 100 | > 100 | – | – | – |
| c1ccc2c(-c3ccnc(-c4c[nH]c5ccccc45)n3)c[nH]c2c1 | 54.2 | – | – | > 100 | 19.7 | 19.4 | 25.9 | – | – | – | – |
| C/C(O)=C/c1nc2sc(C)c(C)c2c(=O)s1 | > 100 | > 100 | – | > 100 | > 100 | – | > 100 | > 100 | – | – | – |
| CC1(C)O[C@@H]([C@@H](O)[C@H](O)C2SCCCS2)[C@@H](CO)O1 | – | > 100 | > 100 µM | – | > 100 | – | > 100 | > 100 | – | – | – |
| CSc1ccc(C=C2N=C(c3ccccc3)N(c3cc(C(=O)c4ccccc4)ccc3N3C(=O)/C(=C/c4ccc(SC)cc4)N=C3c3ccccc3)C2=O)cc1 | > 100 | – | – | > 100 | > 100 | – | > 100 | > 100 | – | – | – |
| COC(=O)/C=C(\S/C(=C(/c1ccccc1)n1cc(C(=O)OC)c(C(=O)OC)n1)c1ccccc1)C(=O)OC | 22.9 | > 100 | – | 29 | 40.9 | 32.6 | 16.9 | 94 | – | – | – |
| Cc1c(/C=N\NC(=S)N(C)CCN(C)C(=S)N/N=C\c2c(C)n(C)n(-c3ccccc3)c2=O)c(=O)n(-c2ccccc2)n1C | – | > 100 | > 100 µM | > 100 | – | > 100 | > 100 | > 100 | – | – | – |
| CN(C)c1ccc(C=Nc2ccc(-c3nc4ccccc4o3)cc2)cc1 | > 100 | – | > 100 µM | > 100 | > 100 | > 100 | > 100 | > 100 | – | – | – |
| COc1cc(-c2c(C(C)=O)c(-c3ccccc3)n(C3OC(COC(C)=O)C(OC(C)=O)C(OC(C)=O)C3OC(C)=O)c(=S)c2C#N)ccc1O (centres undefined) | > 100 | – | 90.4 µM and > 100 µM | > 100 | > 100 | > 100 | > 100 | > 100 | – | – | 18.6 µM and 40.2 µM |
| COC(=O)C(NC(=O)C12CCC(C)(C(=O)O1)C2(C)C)c1cc(C(C)(C)C)c(O)c(C(C)(C)C)c1 (centres undefined) | > 100 | > 100 | > 100 µM | > 100 | – | > 100 | > 100 | > 100 | – | – | – |
